These results are taken from patent publication US7408024B2, “Somatostatin antagonists” (The Administrators of the Tulane Educational Fund, priority 2001, dated 2008).

One test deals with T1, hsst5 (Homo sapiens, UniProt P35346).
T1 construct: each containing the entire coding region of the full-length receptors; expressed in transfected cells
Description: Radioligand binding, cloned human sst5 receptor (CHO-K1 membranes). As to conditions: [125I]Tyr11-SRIF, CHO-K1 cell membranes; single values = one binding experiment; read-out: K1 ± SEM hsst5. From the text: (§1) The genomic clones containing the human somatostatin receptors (hsstr1-5) (Yamada, Y., et al. al., Proc. Natl. Acad. Sci. USA. 1992, 89, 251-255; Yasuda, K., et al., J. Biol. Chem. 1992, 267, 20422-20428; Yamada, Y., et al., Mol. Pharmacol. 1992, 42, 2136-2142; Rohrer, L., et al., Proc. Natl. Acad. Sci. USA. 1993, 90, 4196-4200.), were kindly provided by Dr. Graeme I. Bell (University of Chicago). The hsstr1, hsstr2, hsstr3, hsstr4 and hsstr5 cDNAs were isolated as a 1.5-kb PstI-XmnI fragment, 1.7-kb BamHI-HindIII fragment, 2.0-kb NcoI-HindIII fragment, 1.4-kb NheI-NdeI fragment, and a 1.2-kb HindIII-XbaI fragment, respectively, each containing the entire coding region of the full-length receptors. These fragments were independently subdloned into the corresponding restriction endonuclease sites in the mammalian expression vector pCMV5, downstream from the human cytomegalovirus (CMV) promoter, to produce the expression plasmids pCMV5/hsstr1, pCMV5/hsstr2, pCMV5/hsstr3, pCMV5/hsstr4 and pCMV5/hsstr5. For transfection into CHO-K1 cells, a plasmid, pRSV-neo (American Type Culture Collection, Rockville, Md.), carrying the neomycin mammalian cell selectable marker was added.
(§2) Transfections were performed by the calcium phosphate method. CHO-K1 cells are maintained in α-minimum essential medium (α-MEM; Gibco) supplemented with 10% fetal calf serum and transfected with each of the expression plasmids using calcium phosphate precipitation. Clones that had inherited the expression plasmid were selected in α-MEM supplemented with 500 μg mL^−1 of geneticin (G418; Gibco). Independent CHO-K1 clones were picked by glass-ring cloning and expanded in culture in the selective media. Membranes were prepared from the isolated clones and hsstr expression was initially assessed for binding with [^125I]Tyr^11-SRIF and [^125]IMK-678 (for sstr2).
(§3) Cell membranes of the 5 receptor types were obtained from homogenates (Polytron setting 6, 15 sec) of the corresponding CHO-K1 cells, in ice-cold Tris-HCl (50 mM) and centrifuged (39000 g, 10 min×2), with an intermediate resuspension in fresh buffer. The final pellets are resuspended in Tris-HCl (10 mM) for assay. Aliquots of the membranes are incubated (30 min at 37° C.) with 0.05 nM [^125I]Tyr^11-SRIF (types 1,3,4,5) or [^125I]MK-678 (type 2) in 50 mM HEPES (pH 7.4) containing BSA (10 mg mL^−1); MgCl2 (5 mM), Trasylol (200 kIU mL^−1), bacitracin (0.02 mg mL^−1), and phenylmethanesulfonyl fluoride (0.02 mg mL^−1). The final assay volume is 0.3 mL and incubations are terminated by rapid filtration through GF/C filters pre-soaked in 0.3% poly(ethylenimine) using a Brandel rapid filtration module. Each tube and filter is then washed with aliquots of cold buffer (3×5 mL).
(§4) Specific binding is. defined as the total radioligand bound minus that bound in the presence of 1.0 μM SRIF.

Another test concerns the target T2, hsst1 (Homo sapiens, UniProt P30872).
T2 construct: each containing the entire coding region of the full-length receptors; expressed in transfected cells
In words: Radioligand binding, cloned human sst1 receptor (CHO-K1 membranes). The conditions noted are these: [125I]Tyr11-SRIF, CHO-K1 cell membranes; single values = one binding experiment; read-out: K1 ± SEM hsst1.
Excerpt: as §1, §2, §3, §4

A further test has as its target T3, hsst3 (Homo sapiens, UniProt P32745).
T3 construct: each containing the entire coding region of the full-length receptors; expressed in transfected cells
In words: Radioligand binding, cloned human sst3 receptor (CHO-K1 membranes). As to conditions: [125I]Tyr11-SRIF, CHO-K1 cell membranes; single values = one binding experiment; read-out: K1 ± SEM hsst3.
Excerpt: as §1, §2, §3, §4

For the next test, the target named is T4, hsst4 (Homo sapiens, UniProt P31391).
T4 construct: each containing the entire coding region of the full-length receptors; expressed in transfected cells
T4 sequence (P31391 whole entry): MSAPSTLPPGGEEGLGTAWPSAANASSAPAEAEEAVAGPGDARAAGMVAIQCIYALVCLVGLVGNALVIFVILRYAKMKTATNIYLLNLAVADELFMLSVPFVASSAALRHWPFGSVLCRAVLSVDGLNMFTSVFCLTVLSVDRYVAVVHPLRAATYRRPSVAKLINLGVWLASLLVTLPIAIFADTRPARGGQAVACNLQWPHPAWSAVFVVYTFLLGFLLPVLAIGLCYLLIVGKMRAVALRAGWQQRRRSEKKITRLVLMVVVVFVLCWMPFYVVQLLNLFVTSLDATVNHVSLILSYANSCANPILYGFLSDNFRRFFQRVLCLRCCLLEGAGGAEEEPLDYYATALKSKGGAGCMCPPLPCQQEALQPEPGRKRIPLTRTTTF
Description: Radioligand binding, cloned human sst4 receptor (CHO-K1 membranes). As to conditions: [125I]Tyr11-SRIF, CHO-K1 cell membranes; single values = one binding experiment; read-out: K1 ± SEM hsst4.
Excerpt: as §1, §2, §3, §4

A further test concerns the target T5, hsst2 (Homo sapiens, UniProt P30874).
T5 construct: each containing the entire coding region of the full-length receptors; expressed in transfected cells
In words: Radioligand binding, cloned human sst2 receptor (CHO-K1 membranes). As to conditions: [125I]MK-678, CHO-K1 cell membranes; single values = one binding experiment; read-out: K1 ± SEM hsst2.
Excerpt: as §1, §2, §3, §4

SMILES strings stand for the structures. Where a SMILES comes first, the peptide text is derived from it. Bridges are numbered along the chain shown (N, C = ends). [ ]: non-standard residue; d: D form. Phe(4-Cl) = N[C@@H](Cc1ccc(Cl)cc1)C(=O)O; dNMeW = CN[C@H](Cc1c[nH]c2ccccc12)C(=O)O; Dip = N[C@H](C(=O)O)C(c1ccccc1)c1ccccc1; 2Nal = N[C@@H](Cc1ccc2ccccc2c1)C(=O)O; NMeT = CN[C@H](C(=O)O)[C@@H](C)O; 3Pal = N[C@@H](Cc1cccnc1)C(=O)O; NMeK = CN[C@@H](CCCCN)C(=O)O; NMeC = CN[C@@H](CS)C(=O)O; dNMeC = CN[C@H](CS)C(=O)O

T5 sequence (P30874 whole entry): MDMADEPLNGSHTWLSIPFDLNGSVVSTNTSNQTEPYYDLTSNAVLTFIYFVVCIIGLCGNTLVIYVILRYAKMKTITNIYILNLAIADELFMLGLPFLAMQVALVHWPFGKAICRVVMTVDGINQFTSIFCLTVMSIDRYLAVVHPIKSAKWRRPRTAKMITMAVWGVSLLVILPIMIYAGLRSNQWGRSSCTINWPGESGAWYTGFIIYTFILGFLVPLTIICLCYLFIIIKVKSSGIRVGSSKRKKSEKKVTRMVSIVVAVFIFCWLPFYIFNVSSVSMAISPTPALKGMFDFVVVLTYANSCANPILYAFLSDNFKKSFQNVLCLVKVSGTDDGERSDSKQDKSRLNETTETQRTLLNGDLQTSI
T1 sequence (P35346 whole entry): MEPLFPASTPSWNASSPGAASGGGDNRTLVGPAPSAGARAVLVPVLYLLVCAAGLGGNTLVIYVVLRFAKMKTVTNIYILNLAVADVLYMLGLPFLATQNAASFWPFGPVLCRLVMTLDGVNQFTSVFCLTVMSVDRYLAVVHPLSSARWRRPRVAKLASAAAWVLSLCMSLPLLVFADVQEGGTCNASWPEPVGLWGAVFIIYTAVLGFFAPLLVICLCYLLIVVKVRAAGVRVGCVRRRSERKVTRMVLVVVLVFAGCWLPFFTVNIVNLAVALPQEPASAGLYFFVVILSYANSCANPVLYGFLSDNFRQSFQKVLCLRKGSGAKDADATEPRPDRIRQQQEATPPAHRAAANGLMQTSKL
T2 sequence (P30872 whole entry): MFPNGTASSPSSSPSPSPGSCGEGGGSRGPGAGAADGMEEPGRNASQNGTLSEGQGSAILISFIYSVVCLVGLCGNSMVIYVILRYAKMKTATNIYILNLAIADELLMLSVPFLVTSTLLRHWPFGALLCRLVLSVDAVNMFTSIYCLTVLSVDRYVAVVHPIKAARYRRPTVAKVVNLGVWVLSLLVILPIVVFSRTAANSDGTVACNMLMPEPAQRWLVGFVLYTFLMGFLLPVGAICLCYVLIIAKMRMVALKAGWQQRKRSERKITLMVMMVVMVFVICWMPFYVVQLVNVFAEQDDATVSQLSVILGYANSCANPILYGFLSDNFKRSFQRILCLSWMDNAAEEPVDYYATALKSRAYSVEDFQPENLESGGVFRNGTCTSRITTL
T3 sequence (P32745 whole entry): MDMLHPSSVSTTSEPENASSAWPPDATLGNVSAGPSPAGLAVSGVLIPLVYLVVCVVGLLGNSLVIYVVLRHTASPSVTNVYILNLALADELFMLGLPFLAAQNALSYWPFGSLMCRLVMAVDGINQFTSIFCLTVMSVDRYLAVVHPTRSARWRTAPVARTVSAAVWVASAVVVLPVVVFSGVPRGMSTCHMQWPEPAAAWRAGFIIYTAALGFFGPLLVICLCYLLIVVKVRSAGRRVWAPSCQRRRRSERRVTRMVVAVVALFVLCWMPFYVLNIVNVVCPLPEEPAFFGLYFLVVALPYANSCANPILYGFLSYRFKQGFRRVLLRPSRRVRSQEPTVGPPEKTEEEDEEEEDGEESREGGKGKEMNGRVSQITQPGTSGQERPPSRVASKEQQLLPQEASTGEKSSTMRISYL

For `CNC(=O)[C@H](Cc1ccc2ccccc2c1)NC(=O)[C@@H]1CSSC[C@@H](N(C)C(=O)[C@@H](N)Cc2ccc(Cl)cc2)C(=O)N[C@@H](Cc2cccnc2)C(=O)N[C@H](Cc2c[nH]c3ccccc23)C(=O)N[C@@H](CCCCN)C(=O)N[C@@H]([C@@H](C)O)C(=O)N1` [Peptide 2, Cpa-cyclo(NmeDCys-3-Pal-DTrp-Lys-Thr-Cys)-2-Nal-NHMe] (H-[Phe(4-Cl)][dNMeC][3Pal][dW]KTC[2Nal]-NHMe; disulfide 2-7), the Ki was 0.106 ± 0.036 µM on hsst5; 1 µM at hsst1; 0.576 ± 0.047 µM on hsst3; 1 µM at hsst4; 0.089 ± 0.008 µM on hsst2.

For `C[C@@H](O)[C@@H]1NC(=O)[C@H](CCCCN)NC(=O)[C@@H](Cc2c[nH]c3ccccc23)NC(=O)[C@H](Cc2cccnc2)N(C)C(=O)[C@H](NC(=O)[C@@H](N)Cc2ccc(Cl)cc2)CSSC[C@@H](C(=O)N[C@@H](Cc2ccc3ccccc3c2)C(N)=O)NC1=O` [Peptide 3, Cpa-cyclo(DCys-Nme3-Pal-DTrp-Lys-Thr-Cys)-2-Nal-NH2], the Ki at hsst3 is 0.45 ± 0.132 µM; at hsst2, 0.189 ± 0.035 µM.

As to `C[C@@H](O)[C@@H]1NC(=O)[C@H](CCCCN)NC(=O)[C@@H](Cc2c[nH]c3ccccc23)N(C)C(=O)[C@H](Cc2cccnc2)NC(=O)[C@H](NC(=O)[C@@H](N)Cc2ccc(Cl)cc2)CSSC[C@@H](C(=O)N[C@@H](Cc2ccc3ccccc3c2)C(N)=O)NC1=O` [Peptide 4, Cpa-cyclo(DCys-3-Pal-NMeDTrp-Lys-Thr-Cys)-2-Nal-NH2] (H-[Phe(4-Cl)][dC][3Pal][dNMeW]KTC[2Nal]-NH2; disulfide 2-7), the Ki was 0.093 ± 0.0177 µM at hsst5, 0.39 ± 0.114 µM at hsst3 and 0.0518 ± 0.0026 µM at hsst2.

Consider `C[C@@H](O)[C@@H]1NC(=O)[C@H](CCCCN)N(C)C(=O)[C@@H](Cc2c[nH]c3ccccc23)NC(=O)[C@H](Cc2cccnc2)NC(=O)[C@H](NC(=O)[C@@H](N)Cc2ccc(Cl)cc2)CSSC[C@@H](C(=O)N[C@@H](Cc2ccc3ccccc3c2)C(N)=O)NC1=O` [Peptide 5, Cpa-cyclo(DCys-3-Pal-DTrp-NMeLys-Thr-Cys)-2-Nal-NH2] (H-[Phe(4-Cl)][dC][3Pal][dW][NMeK]TC[2Nal]-NH2; disulfide 2-7), for which the Ki on hsst5 is 0.00598 ± 0.00091 µM; at hsst3 it was 0.066 ± 0.0058 µM; on hsst2, 0.0171 ± 0.0055 µM.

On to `C[C@@H](O)[C@H]1C(=O)N[C@H](C(=O)N[C@@H](Cc2ccc3ccccc3c2)C(N)=O)CSSC[C@@H](NC(=O)[C@@H](N)Cc2ccc(Cl)cc2)C(=O)N[C@@H](Cc2cccnc2)C(=O)N[C@H](Cc2c[nH]c3ccccc23)C(=O)N[C@@H](CCCCN)C(=O)N1C` [Peptide 6, Cpa-cyclo(DCys-3-Pal-DTrp-Lys-NMeThr-Cys)-2-Nal-NH2] (H-[Phe(4-Cl)][dC][3Pal][dW]K[NMeT]C[2Nal]-NH2; disulfide 2-7), for which the Ki was determined as 0.395 ± 0.202 µM at hsst1, 0.315 ± 0.0125 µM on hsst3, 1 µM at hsst4 and 1 µM on hsst2.

Take `C[C@@H](O)[C@@H]1NC(=O)[C@H](CCCCN)NC(=O)[C@@H](Cc2c[nH]c3ccccc23)NC(=O)[C@H](Cc2cccnc2)NC(=O)[C@H](NC(=O)[C@@H](N)Cc2ccc(Cl)cc2)CSSC[C@@H](C(=O)N[C@@H](Cc2ccc3ccccc3c2)C(N)=O)N(C)C1=O` [Peptide 7, Cpa-cyclo(DCys-3-Pal-DTrp-Lys-Thr-NmeCys)-2-Nal-NH2] (H-[Phe(4-Cl)][dC][3Pal][dW]KT[NMeC][2Nal]-NH2; disulfide 2-7): the Ki on hsst3 was 0.0687 ± 0.0047 µM; on hsst4 it was 0.575 µM; on hsst2, 0.81 µM.

For the compound `C[C@@H](O)[C@@H]1NC(=O)[C@H](CCCCN)NC(=O)[C@@H](Cc2c[nH]c3ccccc23)NC(=O)[C@H](Cc2cccnc2)NC(=O)[C@H](NC(=O)[C@@H](N)Cc2ccc(Cl)cc2)CSSC[C@@H](C(=O)N[C@@H](Cc2ccc3ccccc3c2)C(N)=O)NC1=O` [Peptide 9, Cpa-cyclo(DCys-3-Pal-DTrp-Lys-Thr-Cys)-Nal-NH2], the Ki at hsst3 turned out to be 0.0382 ± 0.0024 µM; at hsst4, 1 µM; on hsst2, 0.0121 ± 0.0019 µM.

For `CNC(=O)[C@@H](NC(=O)[C@@H]1CSSC[C@@H](N(C)C(=O)[C@@H](N)Cc2ccc(Cl)cc2)C(=O)N[C@@H](Cc2cccnc2)C(=O)N[C@H](Cc2c[nH]c3ccccc23)C(=O)N[C@@H](CCCCN)C(=O)N[C@@H]([C@@H](C)O)C(=O)N1)C(c1ccccc1)c1ccccc1` [Peptide 10, Cpa-cyclo(NMeDCys-3-Pal-DTrp-Lys-Thr-Cys)-Dip-NHMe] (H-[Phe(4-Cl)][dNMeC][3Pal][dW]KTC[Dip]-NHMe; disulfide 2-7), the Ki on hsst5 turned out to be 0.766 ± 0.11 µM; at hsst1 it was 1 µM; at hsst3, 0.584 ± 0.305 µM; on hsst4 it was 1 µM; on hsst2 it was 0.117 ± 0.0246 µM.

For `C[C@@H](O)[C@@H]1NC(=O)[C@H](CCCCN)N(C)C(=O)[C@@H](Cc2c[nH]c3ccccc23)NC(=O)[C@H](Cc2cccnc2)NC(=O)[C@H](NC(=O)[C@@H](N)Cc2ccc(Cl)cc2)CSSC[C@@H](C(=O)N[C@H](Cc2c[nH]c3ccccc23)C(N)=O)NC1=O` [Peptide 14, Cpa-cyclo(DCys-3-Pal-DTrp-NMeLys-Thr-Cys)-DTrp-NH2] (H-[Phe(4-Cl)][dC][3Pal][dW][NMeK]TC[dW]-NH2; disulfide 2-7), the Ki on hsst3 turned out to be 0.0914 ± 0.0119 µM; at hsst2, 0.00545 ± 0.0003 µM.

As for `C[C@@H](O)[C@@H]1NC(=O)[C@H](CCCCN)N(C)C(=O)[C@@H](Cc2c[nH]c3ccccc23)NC(=O)[C@H](Cc2cccnc2)NC(=O)[C@H](NC(=O)[C@@H](N)Cc2ccc3ccccc3c2)CSSC[C@@H](C(=O)N[C@H](Cc2c[nH]c3ccccc23)C(N)=O)NC1=O` [Peptide 15, Nal-cyclo(DCys-3-Pal-DTrp-NMeLys-Thr-Cys)-DTrp-NH2] (H-[2Nal][dC][3Pal][dW][NMeK]TC[dW]-NH2; disulfide 2-7), the Ki at hsst5 amounted to 0.176 ± 0.0651 µM; at hsst1, 1 µM; at hsst4, 1 µM; on hsst2, 0.0273 ± 0.00145 µM.

Turning to `C[C@@H](O)[C@@H]1NC(=O)[C@H](CCCCN)N(C)C(=O)[C@@H](Cc2c[nH]c3ccccc23)NC(=O)[C@H](Cc2cccnc2)NC(=O)[C@H](NC(=O)[C@@H](N)Cc2cccnc2)CSSC[C@@H](C(=O)N[C@H](Cc2c[nH]c3ccccc23)C(N)=O)NC1=O` [Peptide 16, 3-Pal-cyclo(DCys-3-Pal-DTrp-NMeLys-Thr-Cys)-DTrp-NH2] (H-[3Pal][dC][3Pal][dW][NMeK]TC[dW]-NH2; disulfide 2-7), the figures for the Ki at hsst5, at hsst3 and on hsst2 were 0.313 ± 0.0041 µM, 0.537 ± 0.0448 µM and 0.0247 ± 0.00161 µM, respectively.
